This note sets out measurements from patent US8383375B2 (Posco, priority 2004, dated 2013).

Series [1] concerns the target T1, Ss gluconate dehydratase (Saccharolobus solfataricus, UniProt Q97U27).
T1 sequence (Q97U27 1-395): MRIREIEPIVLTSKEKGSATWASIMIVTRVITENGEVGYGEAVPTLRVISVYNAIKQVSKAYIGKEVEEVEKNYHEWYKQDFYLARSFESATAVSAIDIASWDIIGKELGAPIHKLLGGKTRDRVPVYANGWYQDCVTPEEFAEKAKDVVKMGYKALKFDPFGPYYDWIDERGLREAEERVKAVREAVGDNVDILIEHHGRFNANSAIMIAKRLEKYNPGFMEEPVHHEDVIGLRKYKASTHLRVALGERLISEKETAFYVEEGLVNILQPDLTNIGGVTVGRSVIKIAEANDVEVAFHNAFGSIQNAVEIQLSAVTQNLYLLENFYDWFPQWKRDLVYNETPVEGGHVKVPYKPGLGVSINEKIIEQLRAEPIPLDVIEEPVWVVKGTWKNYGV
Briefly: Substrate specificities of Ss gluconate dehydratase (semicarbazide method). It is filed as biochemical, Sulfolobus solfataricus. Also noted: made in house; host or cells: Sulfolobus solfataricus cells (native source, not recombinant). The note with it: for Reaction on substrate / Relative activity (%): 10 mM aldonic acid, 1 mM CoCl2, 50 mM Tri-HCl buffer pH 7.0, 30 min, 78 C; for Relative activity (%): relative to D-gluconate.
Protocol: (§1) The semicarbazide method was performed as follows: an enzyme reaction of a total volume a 400 μl was incubated at 78° C. in 50 mM Tris-HCl buffer, pH 7.0, with 10 mM gluconate and an enzyme solution. After 30 min, the enzyme reaction was stopped by the addition of 100 μl 2.0 M HCl. To this solution, 300 μl of semicarbazide solution (1.0% (w/v) semicarbazide hydrochloride and 1.5% (w/v) sodium acetate dissolved in distilled water) was added and incubated at 30° C. for 15 min. The final reaction mixture was diluted with 500 μl distilled water and then measured at 250 nm. The absorbance coefficient of the semicarbazone formation toward 2-keto-3-deoxy gluconate (KDG) was taken to be 0.571×10^3 M^−1 cm^−1.
(§2) For analysis of substrate specificities of gluconate dehydrates, a 10 mM solution of each aldonic acid containing carbon chains ranging from C4 to C7 were incubated together with 40 μg/mL of purified protein. […] All experiments were performed in three plicate.

Series [2] deals with T1, Ss gluconate dehydratase.
Protocol: as §1, §2
Biochemical and kinetic parameters for the enzyme were determined using the assay method described above under standard conditions.
Values for Vmax and Km were determined from Lineweaver bulk plots. The rate dependence on substrate concentration followed Michaelis-Meten kinetics.
The nature of series [3]: Temperature profile of enzyme activity. It is filed as biochemical. As to the method: The temperature profile for enzyme activity was determined between 40 and 100° C.
The format of series [4] is physicochemical. As for the experimental part: Enzyme thermostability was determined at 80, 90, and 100° C. by incubating enzyme solution (50 μg/ml) in 50 mM Tri-HCl (pH 7.2). At an appropriate time, samples were taken and completely cooled on ice and then measured for residual activities under standard conditions. The thermostability of purified gluconate dehydrates was measured at 80, 90, and 100° C.

Take `OC[C@@H](O)[C@@H](O)[C@H](O)[C@@H](O)CO` [D-glucitol]: in series [1], the Reaction on substrate result is “No reaction on the following substrates: L-arabonate, D-xylonate, D-galacturonate, D-glucitol, D-mannonate, and D, L-glycerate”. In the case of `O=C(O)[C@H](O)[C@@H](O)[C@@H](O)[C@H](O)CO` [D-Galactonate], in series [1], the “Relative activity (%)” value is 2.8%. On to `O=C[C@H](O)[C@@H](O)[C@@H](O)[C@H](O)C(=O)O` [D-galacturonate], for which, in series [1], the Reaction on substrate entry was “No reaction on the following substrates: L-arabonate, D-xylonate, D-galacturonate, D-glucitol, D-mannonate, and D, L-glycerate”. Consider `O=C(O)[C@@H](O)[C@@H](O)[C@H](O)[C@H](O)CO` [D-mannonate], for which the Reaction on substrate entry in series [1] was “No reaction on the following substrates: L-arabonate, D-xylonate, D-galacturonate, D-glucitol, D-mannonate, and D, L-glycerate”. As for `O=C(O)C(O)CO` [D, L-glycerate], in series [1], the Reaction on substrate result is “No reaction on the following substrates: L-arabonate, D-xylonate, D-galacturonate, D-glucitol, D-mannonate, and D, L-glycerate”. Consider `O=C(O)[C@@H](O)[C@H](O)[C@H](O)CO` [D-Arabonate], for which, in series [1], the “Relative activity (%)” value was determined as 0.7%. Take `O=C(O)[C@H](O)[C@@H](O)[C@H](O)[C@H](O)CO` [D-Gluconate]: the conversion in series [1] (10 mM substrate, 40 μg/mL purified protein, standard condition) was found to be 100%. Besides, the “Relative activity (%)” value in series [1] is reported as 100.0%. For the same molecule, the Km in series [2] (D-gluconate 0.1 to 40 mM as substrate, Lineweaver-Burk plots) turned out to be 16.7 mM. In addition, in series [2] (D-gluconate as substrate), the “turnover number (kcat)” value amounted to 333 s⁻¹. For the same molecule, in series [2] (D-gluconate as substrate, Lineweaver-Burk plots), the Vm worked out at 34.5 units/mg. Take `O=C(O)[C@H](O)[C@@H](O)[C@@H](O)CO` [L-arabonate]: in series [1], the Reaction on substrate entry was “No reaction on the following substrates: L-arabonate, D-xylonate, D-galacturonate, D-glucitol, D-mannonate, and D, L-glycerate”. With L-isovalerate [D, L-isovalerate], in series [1], the “Relative activity (%)” value stood at 0.25%.

Consider `O=C(O)[C@H](O)[C@@H](O)[C@H](O)CO` [D-xylonate], for which the Reaction on substrate result in series [1] is “No reaction on the following substrates: L-arabonate, D-xylonate, D-galacturonate, D-glucitol, D-mannonate, and D, L-glycerate”. For D-Galactoheptonate, the “Relative activity (%)” value in series [1] turned out to be 1.6%.

B1: gluconate dehydratase: thermostable gluconate dehydratase purified from Sulfolobus solfataricus P2, SEQ ID NO:2, octamer (protein, listed as Sulfolobus solfataricus)
chain: T1 sequence (Q97U27 1-395)
modifications: octamer
As to B1, the “Enzyme activity below 60° C.” value in series [3] was “not detectable”. Besides, the “enzyme activity after incubation at 90° C.” value in series [4] (90° C., 2 hour incubation, 50 μg/ml enzyme in 50 mM Tri-HCl pH 7.2) was “below 50%”. Besides, the “thermostability at 80° C.” value in series [4] (pH 7.2) is on record as “very stable over 2 hours”.

A word on the Km: it is the substrate concentration at which the rate is half of its maximum.
